Source: US20170112784A1, “Method and Medicament for Pain Management” (priority 2007, published 2017)

Columns and labels:
horses [1] = settings: typical; cited from earlier work
horses [2] = test: Trial of methoxyflurane administered to horses at the end of anaesthesia to modify recovery; type: in vivo, horse; set-up: 1st Movt / Stern. / Stnd / Atax / Walk out: unit not given here
Procedure: Trial of methoxyflurane administered to horses at the end of anaesthesia, attempting to modify recovery:
[…] Horses recovering from isoflurane typically attempt to stand in 10 to 15 minutes, usually fall down and try to get back up 2 or 3 times (sometimes violent, resulting in injuries from skin abrasions to fractured limbs) and are then standing 15 to 20 minutes after anaesthetic administration ceased. […] Halothane recoveries are less violent and result in less likelihood of injury.
Initially trials were also performed in anattempt to determine the dose and duration of MOF administration that would result in improved quality of recovery.
The last 8 horses were administered with ever lower doses of MOF for less time with better results (see table below). […] The lowest dose produced a good result.

[3] = horse 338 kgs, 30 Mins. HAL anaesthesia, Methoxy volume not given
[4] = horse 492 kgs, 90 Mins. HAL anaesthesia, Methoxy volume not given
[5] = horse 472 kgs, 130 Mins. ISO anaesthesia, Methoxy volume not given
[6] = horse 332 kgs, 135 Mins. ISO anaesthesia, Methoxy total 200 ml
[7] = horse 462 kgs, 135 Mins. ISO anaesthesia, Methoxy total 350 ml
[8] = horse 470 kgs, 85 Mins. ISO anaesthesia, Methoxy total 210 ml
[9] = horse 492 kgs, 75 Mins. ISO anaesthesia, Methoxy total 540 ml
[10] = horse 580 kgs, 16O Mins. ISO anaesthesia, Methoxy total 300 ml

## FC(F)(F)C(Cl)Br (centres unmarked) [HAL, halothane]
Horses [1]
  recovery duration in comparison with isoflurane: twice as long as isoflurane
Horses [2]; [3]
  1st Movt: 27
  Atax: Fell
  Comments: Stood/fell x 3
  Stern.: 30
  Stnd: 31
  Walk out: 55
Horses [2]; [4]
  1st Movt: 30
  Atax: 75
  Comments: Poor - flip over
  Stern.: 50(2)
  Stnd: 65
  Walk out: 85

## FC(F)OC(Cl)C(F)(F)F (centres unmarked) [ISO, isoflurane]
Horses [2]; [5]
  1st Movt: 23
  Atax: 78
  Comments: Try stand at 23
  Stern.: 32
  Stnd: 63
  Walk out: 100

## COC(F)(F)C(Cl)Cl [Methoxy, methoxyflurane]
Horses [2]; [6]
  1st Movt: 17
  Atax: 30
  Comments: Good
  Stern.: 25
  Stnd: 26
  Walk out: 41
Horses [2]; [7]
  1st Movt: 48
  Atax: 59
  Comments: Still 45 mm then
  Stnd: 49
  Walk out: 75
Horses [2]; [8]
  1st Movt: 5
  Atax: 35
  Comments: 10x wobble then
  Stern.: 14
  Stnd: 29
  Walk out: 55
Horses [2]; [9]
  1st Movt: 50
  Atax: 85
  Comments: Stood 69- fell
  Stern.: 60
  Stnd: 75
  Walk out: 100
Horses [2]; [10]
  1st Movt: 37
  Atax: 85
  Stern.: 60
  Stnd: 61
  Walk out: 90
Horses [2]; initial trials (higher dose, longer administration), horses after isoflurane anaesthesia
  quality of recovery: long recoveries with marked ataxia
Horses [2]; last 8 horses, ever lower doses for less time
  quality of recovery: less ataxia and a better quality recovery
Horses [2]; lowest dose, last horse
  quality of recovery: good result
